In PubChem BioAssay (NCI):
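Assay format: 96-well plates, 48-hour exposure. GI50: concentration for 50% inhibition of growth. TGI: total growth inhibition.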

How the values were obtained:
Experiment in all cases: NCI-60 cell line screen, 48 h
[1] = system: A498 renal
[2] = system: A549 NSCLC
[3] = system: ACHN renal
[4] = system: CAKI-1 renal
[5] = system: CCRF-CEM leukemia
[6] = system: COLO 205 colon
[7] = system: DU-145 prostate
[8] = system: HCC-2998 colon
[9] = system: HCT-116 colon
[10] = system: HCT-15 colon
[11] = system: HL-60(TB) leukemia
[12] = system: HOP-62 NSCLC
[13] = system: HS 578T breast
[14] = system: HT29 colon
[15] = system: IGROV1 ovarian
[16] = system: K-562 leukemia
[17] = system: KM12 colon
[18] = system: MCF7 breast
[19] = system: MDA-MB-231 breast
[20] = system: MDA-MB-435
[21] = system: MOLT-4 leukemia
[22] = system: NCI-H226 lung
[23] = system: NCI-H23 lung
[24] = system: NCI-H460 lung
[25] = system: NCI-H522 lung
[26] = system: NCI/ADR-RES ovarian
[27] = system: OVCAR-3 ovarian
[28] = system: OVCAR-4 ovarian
[29] = system: OVCAR-5 ovarian
[30] = system: OVCAR-8 ovarian
[31] = system: PC-3 prostate
[32] = system: RPMI-8226 leukemia
[33] = system: SF-268 CNS
[34] = system: SF-295 CNS
[35] = system: SF-539 CNS
[36] = system: SK-MEL-28 melanoma
[37] = system: SK-MEL-5 melanoma
[38] = system: SK-OV-3 ovarian
[39] = system: SN12C renal
[40] = system: SNB-75 CNS
[41] = system: SR leukemia
[42] = system: SW-620 colon
[43] = system: T-47D breast
[44] = system: TK-10 renal
[45] = system: U251 CNS
[46] = system: UACC-257 melanoma
[47] = system: UACC-62 melanoma
[48] = system: UO-31 renal

For `COc1cc2nc(N3CCC[C@H](NC4=CC(=O)c5ccccc5C4=O)C3)nc(N)c2cc1OC`, which GI50 [1] is on record?
Its GI50 is 11.8 µM.

And the TGI [1]?
Its TGI is 34 µM.

What about the GI50 [2] of the same molecule?
The GI50 was 2230 nM.

What about the TGI [2] of the same molecule?
The TGI was 4 µM.

What about the GI50 [3] of the same molecule?
The GI50 was 1840 nM.

And the TGI [3]?
Its TGI is 3.47 µM.

What about the GI50 [4] of the same molecule?
The GI50 was 1890 nM.

And the TGI [4]?
The TGI was 3.91 µM.

What about the GI50 [5] of the same molecule?
Its GI50 is 1790 nM.

What about the TGI [5] of the same molecule?
Its TGI is 5.45 µM.

And the GI50 [6]?
Its GI50 is 1910 nM.

What about the TGI [6] of the same molecule?
The TGI was 3.47 µM.

What about the GI50 [7] of the same molecule?
The GI50 was 1960 nM.

What about the TGI [7] of the same molecule?
The TGI was 3.58 µM.

What about the GI50 [8] of the same molecule?
The GI50 was 1970 nM.

And the TGI [8]?
Its TGI is 3.5 µM.

What about the GI50 [9] of the same molecule?
Its GI50 is 1640 nM.

What about the TGI [9] of the same molecule?
Its TGI is 4.81 µM.

What about the GI50 [10] of the same molecule?
Its GI50 is 2010 nM.

What about the TGI [10] of the same molecule?
The TGI was 4.86 µM.

And the GI50 [11]?
The GI50 was 1940 nM.

And the TGI [11]?
The TGI was 4.04 µM.

And the GI50 [12]?
Its GI50 is 2260 nM.

What about the TGI [12] of the same molecule?
Its TGI is 4.48 µM.

What about the GI50 [13] of the same molecule?
Its GI50 is 1970 nM.

And the TGI [13]?
The TGI was 4.64 µM.

What about the GI50 [14] of the same molecule?
The GI50 was 2020 nM.

And the TGI [14]?
The TGI was 4.07 µM.

What about the GI50 [15] of the same molecule?
The GI50 was 2070 nM.

And the TGI [15]?
The TGI was 4.27 µM.

What about the GI50 [16] of the same molecule?
The GI50 was 348 nM.

What about the TGI [16] of the same molecule?
Its TGI is 1420 nM.

What about the GI50 [17] of the same molecule?
The GI50 was 1770 nM.

And the TGI [17]?
The TGI was 3.22 µM.

What about the GI50 [18] of the same molecule?
Its GI50 is 1610 nM.

What about the TGI [18] of the same molecule?
The TGI was 3.3 µM.

What about the GI50 [19] of the same molecule?
Its GI50 is 1630 nM.

And the TGI [19]?
Its TGI is 3.3 µM.

What about the GI50 [20] of the same molecule?
Its GI50 is 2050 nM.

And the TGI [20]?
Its TGI is 4.03 µM.

What about the GI50 [21] of the same molecule?
Its GI50 is 2370 nM.

And the TGI [21]?
The TGI was 5.9 µM.

What about the GI50 [22] of the same molecule?
The GI50 was 16.6 µM.

What about the TGI [22] of the same molecule?
The TGI was 55.6 µM.

And the GI50 [23]?
Its GI50 is 1990 nM.

What about the TGI [23] of the same molecule?
Its TGI is 4.13 µM.

What about the GI50 [24] of the same molecule?
Its GI50 is 1960 nM.

And the TGI [24]?
Its TGI is 4.01 µM.

And the GI50 [25]?
Its GI50 is 1830 nM.

What about the TGI [25] of the same molecule?
The TGI was 3.58 µM.

What about the GI50 [26] of the same molecule?
The GI50 was 2340 nM.

And the TGI [26]?
Its TGI is 5.44 µM.

What about the GI50 [27] of the same molecule?
The GI50 was 1890 nM.

What about the TGI [27] of the same molecule?
Its TGI is 3.43 µM.

And the GI50 [28]?
Its GI50 is 1610 nM.

And the TGI [28]?
The TGI was 3.19 µM.

What about the GI50 [29] of the same molecule?
Its GI50 is 2050 nM.

And the TGI [29]?
Its TGI is 4 µM.

And the GI50 [30]?
Its GI50 is 2060 nM.

And the TGI [30]?
Its TGI is 4.28 µM.

What about the GI50 [31] of the same molecule?
The GI50 was 1750 nM.

And the TGI [31]?
The TGI was 3.67 µM.

What about the GI50 [32] of the same molecule?
Its GI50 is 1980 nM.

What about the TGI [32] of the same molecule?
Its TGI is 4.84 µM.

What about the GI50 [33] of the same molecule?
The GI50 was 1820 nM.

And the TGI [33]?
The TGI was 3.61 µM.

What about the GI50 [34] of the same molecule?
The GI50 was 1960 nM.

What about the TGI [34] of the same molecule?
The TGI was 4.06 µM.

What about the GI50 [35] of the same molecule?
The GI50 was 1940 nM.

And the TGI [35]?
Its TGI is 3.77 µM.

And the GI50 [36]?
The GI50 was 1970 nM.

And the TGI [36]?
The TGI was 3.67 µM.

And the GI50 [37]?
The GI50 was 1730 nM.

What about the TGI [37] of the same molecule?
Its TGI is 3.26 µM.

What about the GI50 [38] of the same molecule?
The GI50 was 2220 nM.

And the TGI [38]?
The TGI was 4.22 µM.

What about the GI50 [39] of the same molecule?
Its GI50 is 1730 nM.

What about the TGI [39] of the same molecule?
The TGI was 3.51 µM.

And the GI50 [40]?
The GI50 was 1640 nM.

And the TGI [40]?
The TGI was 3.3 µM.

What about the GI50 [41] of the same molecule?
The GI50 was 280 nM.

And the TGI [41]?
The TGI was 2940 nM.

What about the GI50 [42] of the same molecule?
The GI50 was 1500 nM.

And the TGI [42]?
The TGI was 3.32 µM.

And the GI50 [43]?
The GI50 was 1900 nM.

What about the TGI [43] of the same molecule?
The TGI was 3.63 µM.

What about the GI50 [44] of the same molecule?
The GI50 was 2410 nM.

And the TGI [44]?
Its TGI is 4.12 µM.

What about the GI50 [45] of the same molecule?
The GI50 was 1650 nM.

And the TGI [45]?
The TGI was 3.18 µM.

And the GI50 [46]?
Its GI50 is 2180 nM.

What about the TGI [46] of the same molecule?
The TGI was 3.94 µM.

What about the GI50 [47] of the same molecule?
Its GI50 is 2140 nM.

What about the TGI [47] of the same molecule?
The TGI was 4.72 µM.

What about the GI50 [48] of the same molecule?
Its GI50 is 1490 nM.

And the TGI [48]?
Its TGI is 3.16 µM.
